Data reported in US10828372B2, “Compositions and methods for the inhibition of fibrosis” (WISCONSIN ALUMNI RESEARCH FOUNDATION, priority 2017, dated 2020).
Several values for one entry are separate records, joined by “and”; a condition that tells them apart may be missing. Equal values may be shown once. Where no end group is shown, it is not given here.

Experiments:
[1] = test system: bleomycin-induced pulmonary fibrosis; assay: Bleomycin-induced pulmonary fibrosis model: hydroxyproline and survival; type: in vivo, mouse
Method: All efforts were made to minimize suffering. The Bleomycin model is a rodent model representing a human equivalent of pulmonary fibrosis with the fibrotic response peaking between 14 and 21 days post-bleomycin installation. To initiate bleomycin injury, mice were anesthetized with ketamine (100 mg/kg) and xylazine (15 mg/kg) prior to delivering a single intratracheal dose of bleomycin (1 U/kg, Teva Pharmaceutical Industries, Ltd) reconstituted in 0.9% Normal Saline (NS) or NS alone as control.
End-points for analysis: On day 14, mice were euthanized and lungs homogenized for hydroxyproline and western blot. Additionally, mouse survival by day 14 was compared between bleomycin PEG-FUD- and bleomycin PEG-mFUD-treated groups using Log-Rank test.
Hydroxyproline assay: Hydroxyproline assay was performed by Dounce homogenizing right lungs in deionized water, hydrolyzing in 6 N HCl for three hours at 120° C., drying for 45 min at 65° C., incubating in citrate-acetate buffer and chloramine-T for 20 min at room temperature, followed by Ehrlich's reagent for 15 min at 65° C. Subsequently, the samples were cooled to room temperature and the absorbance measured at 550 nm. […] Hydroxyproline results were analyzed using Students t-test with Bonferroni post-hoc test, comparing bleomycin- and PEG-FUD-treated mice to those treated with bleomycin and PEG-mFUD.

[2] = Bleomycin model: PEG-FUD organ accumulation (Western blot, ex vivo fluorescence imaging); type: in vivo, mouse; conditions: day 3-13 s.c. injection, bleomycin-injured vs uninjured (NS) lungs
Method: Separately, on day three post-bleomycin treatment, another animal set was treated with a single SC dose of PEG-FUD mixed with 25% Cy5-fluorophore labeled PEG-FUD or fully unlabeled PEG-FUD control (12.5 mg/kg). These mice were sacrificed seven days post-bleomycin treatment and their lungs, kidneys and livers imaged ex vivo using the fluorescence protocol on In Vivo Imaging System.
Western blot: Homogenized lung tissue was lysed for protein using 5% SDS/5 M Urea lysing buffer. The lysates were sonicated and boiled for 5 min prior to being subject to electrophoresis on polyacrylamide gels at 400 V for 2 hours and transferred at 100 V for 2.5 hours. Membranes were blotted with in-house made anti-FUD antibody produced in rabbit (0.7 μg/ml suspended in 2% bovine serum albumin) or β-actin housekeeping antibody produced in mouse (Sigma-Aldrich, 2 μg/ml suspended in 2% bovine serum albumin) and corresponding HRP-conjugated secondary antibody (1:3000). Blots were developed using an enhanced chemiluminescence (ECL) reaction (GE) and imaged on GE LAS4000 chemiluminescence imager to obtain images below the saturated threshold. […]
In Vivo Imaging System: Lungs, livers and kidneys of mice treated with bleomycin or NS and a single dose of SC Cy5-PEG-FUD or unlabeled PEG-FUD were imaged using the fluorescence protocol in the In Vivo Imaging System. […]

[3] = test system: Alexa 488-labeled human plasma FN; assay: Matrix Assembly in vitro Assay (MAA), A488-FN deposition by AH1F fibroblasts; type: cell-based; conditions: 24 hours, viability-normalized fluorescence, n=4, FUD run alongside each conjugate
Sequence of Alexa 488-labeled human plasma FN (P02751 32-608 limits assumed): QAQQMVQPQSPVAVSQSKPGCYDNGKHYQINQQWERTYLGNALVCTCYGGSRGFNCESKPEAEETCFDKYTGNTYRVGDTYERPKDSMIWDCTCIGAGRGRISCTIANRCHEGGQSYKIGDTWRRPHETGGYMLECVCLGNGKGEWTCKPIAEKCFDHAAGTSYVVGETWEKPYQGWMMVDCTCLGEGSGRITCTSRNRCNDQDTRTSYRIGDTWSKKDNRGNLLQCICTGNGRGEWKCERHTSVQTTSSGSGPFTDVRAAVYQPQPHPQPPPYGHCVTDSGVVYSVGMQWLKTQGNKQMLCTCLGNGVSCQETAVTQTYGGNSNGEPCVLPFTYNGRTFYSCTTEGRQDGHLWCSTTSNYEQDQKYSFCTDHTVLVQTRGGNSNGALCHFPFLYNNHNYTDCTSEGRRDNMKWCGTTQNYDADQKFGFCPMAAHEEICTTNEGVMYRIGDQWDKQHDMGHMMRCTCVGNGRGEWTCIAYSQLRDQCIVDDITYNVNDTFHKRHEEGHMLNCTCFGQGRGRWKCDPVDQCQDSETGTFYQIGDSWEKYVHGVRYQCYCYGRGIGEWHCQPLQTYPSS
Method: Matrix Assembly Assay: The matrix assembly assay was conducted in the 96-well plate format as described in the art. AH1F human skin fibroblast cells resuspended in 2% fetal bovine serum were added to each well for a density of 60,000 cells per well. A 1 hr incubation period at 37° C. followed to allow cell adhesion and spreading. FUD, PEG-FUD, or PEG-mFUD were added to each well following incubation. Immediately, Alexa Fluor® 488 fluorescence labeled human plasma fibronectin (A488-FN) was then added to each well for a final FN concentration of 11 μg/mL. The cells were then incubated for 24 hours at 37° C. Non-assembled FN was removed from each well by washing with Hank's Balanced Salt Solution (HBSS) containing Ca^2+ and Mg^2+. The well volume was restored to 60 μL with HBSS and a fluorescence reading from the bottom of each well was taken using a Synergy™ H1 (Biotek) plate reader (excitation: 485 nm, Emission: 538 nm). Cell viability was quantified using CellTiter-Glo® cell viability assay using the manufacturer's protocol. A 30 μL aliquot of HBSS was removed from each well and was replaced with 30 μL of the luminescence reagent prepared shortly beforehand. Luminescence was quantified using the same plate reader. The average of fluorescence values of a no A488FN or inhibitor control group were routinely subtracted from the readings of each well and were normalized using each well's corresponding luminescence value. Lastly, the cell viability normalized fluorescence values were expressed as a percentage of the 0 nM drug control group. The final results were processed using Graphpad Prism 7.0 software. IC50 values were extracted using a four-parameter dose-response curve function. Student's t test was used to determine significance of differences among peptides at a given drug concentration.
The PEG-FUD FN fibrillogenesis inhibitory performance was evaluated in vitro using the matrix assembly assay (MAA). The methodology of this assay is depicted in FIG. 8. The MAA quantifies ECM deposition of exogenous AlexaFluor® 488-labeled FN (A488FN) by a confluent monolayer of fibroblasts after an incubation period by measuring fluorescence of deposited FN. In this study, the performance of PEG-FUD peptides was compared to that of FUD and the PEG-mFUD control peptide using the AH1F human foreskin fibroblast cell line.

| Substance | survival to the end of the 14-day trial ([1]; bleomycin-treated mice, s.c. 12.5 mg/kg/day day 3-13) [%] | collagen accumulation (hydroxyproline assay, right lung) ([1]; day 14 post-bleomycin, s.c. 12.5 mg/kg/day day 3-13, vs PEG-mFUD) | PEG-FUD accumulation in lungs (Western blot) [2] | IC50 [3] |
| --- | --- | --- | --- | --- |
| PEG-FUD: PEGylated FUD prepared as in Example 1, PEG size not stated; approximately 27 kDa by mass spectrometry, likely the 20 kDa conjugate (KDQSPLAGESGETEYITEVYGNQQNPVDIDKKLPNETGFSGNMVETEDT; not fully specified (N-terminus); also: PEG size not given here) | 100 | significant reduction of collagen accumulation | striking increase in PEG-FUD accumulation in bleomycin-injured lungs | – |
| FUD: 49 amino acid FUD peptide, SEQ ID NO: 1, recombinantly expressed, His-tag removed; inhibitor of fibronectin fibrillogenesis (KDQSPLAGESGETEYITEVYGNQQNPVDIDKKLPNETGFSGNMVETEDT; human) [reference compound] | – | – | – | 13 nM and 26 nM and 19 nM |
